In patent US20210121505A1, “COMPOSITIONS AND METHODS FOR TREATING INFLAMMATORY BOWEL DISEASES” (Seres Therapeutics, Inc., priority 2018, published 2021):

What was measured:
[1] = system: LPS-stimulated peripheral blood mononuclear cells (PBMCs); experiment: TNF-α and IL-10 secretion assay, LPS-stimulated PBMCs; format: cell-based, Human; settings: LPS-activated PBMCs; bile acid 12.5, 25, 50 μM; LPS 1 ng/mL; FIGS. 4A and 4B
Protocol: To better understand the possible relationship between the increased level of certain secondary bile acids and ulcerative colitis remission, monocytes and PBMCs were activated with LPS in the presence of varying concentrations of different primary and secondary bile acids in their conjugated and unconjugated forms. The amount of TNF-α and IL-10 produced by the activated cells was measured as described below.
Human buffy coat was obtained from Bioreclamation and shipped overnight on ice. Buffy coat was diluted 1:1 with PBS and layered on top of a Ficoll-Paque (GE Healthcare Cat #17-1440-03) in 50 mL falcon tubes. Samples were spun at 500×g for 20 min at room temperature with no brake. PBMCs were aspirated at the […] gradient layer and washed 3 times with PBS. Cells were counted with a hemocytometer to determine cell viability and concentration. Cells were plated onto 96 well plate and incubated at 37 C, 5% CO2 for 1 hour. Following this, bile acids were added at a final concentration of 12.5 μM, 25 μM and 50 μM for one hour prior to addition of LPS (1 ng/mL). After incubation of 16-20 hours, the cell culture media were collected for cytokine analysis. Cytokines were assayed using the Milliplex Human Cytokine kit (Luminex; Millipore), assaying IL-10 and TNF-α. Monocytes were isolated from PBMCs using the Miltenyi Biotec Pan Monocyte Isolation Kit (Cat No: 130-096-537) as per manufacturer's instructions and assayed as described above.

[2] = system: intestinal epithelial cells (HT29); experiment: IL-8 secretion assay, TNF-α-stimulated intestinal epithelial cells; format: cell-based; settings: bile acid 62.5, 125, 250 μM, 1.25 ng/mL TNF-α, relative to no bile acid control, FIG. 6
Protocol: Since IBD primarily affects the intestinal tissues, whether the anti-inflammatory effects observed in monocytes and PBMCs were also true in intestinal epithelial cells (HT29) was assessed as described below.
HT29 cells, cultured in McCoys Medium supplemented with 10% FBS, GlutaMAX and Pen/Strep were plated at a density of 50 k cells/well in 96-well format and allowed to grow for 5 days until fully confluent. Culture medium was changed every two days. On day 5, cells were pre-treated for 1 hour with 250 μM, 125 μM or 62.5 μM bile acid compounds before exposure to 1.25 ng/mL TNF-α. Cells were incubated overnight (16 h) and culture supernatants were collected for IL-8 protein quantification by ELISA. IL-8 levels of test samples were normalized to inflammatory controls, DMSO pre-treated samples (i.e., no bile acids) that were exposed to the 1.25 ng/mL TNF-α.

CC(CCC(=O)NCC(=O)O)C1CCC2C3CCC4CC(O)CCC4(C)C3CC(O)C12C (stereo not drawn) [gDCA, glyco-deoxycholic acid]
anti-inflammatory effects (higher IL-10, lower TNF-α) [1]: greatest anti-inflammatory effects | IL-8 production [2]: decreased IL-8 production in a dose-dependent manner

C[C@H](CCC(=O)NCCS(=O)(=O)O)[C@H]1CC[C@H]2[C@@H]3CC[C@@H]4C[C@H](OS(=O)(=O)O)CC[C@]4(C)[C@H]3CC[C@]12C [tLCA, tauro-sulfo-lithocholic acid]
anti-inflammatory effects (higher IL-10, lower TNF-α) [1]: greatest anti-inflammatory effects | IL-8 production [2]: decreased IL-8 production in a dose-dependent manner

C[C@H](CCC(=O)NCCS(=O)(=O)O)[C@H]1CC[C@H]2[C@@H]3CC[C@@H]4C[C@H](O)CC[C@]4(C)[C@H]3C[C@H](O)[C@]12C [tDCA, tauro-deoxycholic acid]
anti-inflammatory effects (higher IL-10, lower TNF-α) [1]: greatest anti-inflammatory effects | IL-8 production [2]: decreased IL-8 production in a dose-dependent manner
